Source: patent publication US12685735B2 (Foghorn Therapeutics Inc., priority 2020, dated 2026)
Where two headings read alike, the source gives them in different places.

Key:
[1] = biological target: BRM (Homo sapiens, UniProt P51531); test: ATPase catalytic activity assay of BRM (ADP-Glo); type: biochemical
Outline: (§1)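 Luminescence from ADP formed by BRM or BRG-1 ATPase was detected after a two-step ADP-Glo workup at room temperature. The first step, removing unconsumed ATP, took 40 min; the second, converting ADP to ATP for luciferase, took 60 min.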

[2] = biological target: BRG-1 (Homo sapiens, UniProt P51532); test: ATPase catalytic activity assay of BRG-1 (ADP-Glo); type: biochemical; details: ATPase catalytic activity, ADP-Glo; for Emax: read-out: BRG1 Max % Inhibition
BRG-1, sequence (P51532 whole entry): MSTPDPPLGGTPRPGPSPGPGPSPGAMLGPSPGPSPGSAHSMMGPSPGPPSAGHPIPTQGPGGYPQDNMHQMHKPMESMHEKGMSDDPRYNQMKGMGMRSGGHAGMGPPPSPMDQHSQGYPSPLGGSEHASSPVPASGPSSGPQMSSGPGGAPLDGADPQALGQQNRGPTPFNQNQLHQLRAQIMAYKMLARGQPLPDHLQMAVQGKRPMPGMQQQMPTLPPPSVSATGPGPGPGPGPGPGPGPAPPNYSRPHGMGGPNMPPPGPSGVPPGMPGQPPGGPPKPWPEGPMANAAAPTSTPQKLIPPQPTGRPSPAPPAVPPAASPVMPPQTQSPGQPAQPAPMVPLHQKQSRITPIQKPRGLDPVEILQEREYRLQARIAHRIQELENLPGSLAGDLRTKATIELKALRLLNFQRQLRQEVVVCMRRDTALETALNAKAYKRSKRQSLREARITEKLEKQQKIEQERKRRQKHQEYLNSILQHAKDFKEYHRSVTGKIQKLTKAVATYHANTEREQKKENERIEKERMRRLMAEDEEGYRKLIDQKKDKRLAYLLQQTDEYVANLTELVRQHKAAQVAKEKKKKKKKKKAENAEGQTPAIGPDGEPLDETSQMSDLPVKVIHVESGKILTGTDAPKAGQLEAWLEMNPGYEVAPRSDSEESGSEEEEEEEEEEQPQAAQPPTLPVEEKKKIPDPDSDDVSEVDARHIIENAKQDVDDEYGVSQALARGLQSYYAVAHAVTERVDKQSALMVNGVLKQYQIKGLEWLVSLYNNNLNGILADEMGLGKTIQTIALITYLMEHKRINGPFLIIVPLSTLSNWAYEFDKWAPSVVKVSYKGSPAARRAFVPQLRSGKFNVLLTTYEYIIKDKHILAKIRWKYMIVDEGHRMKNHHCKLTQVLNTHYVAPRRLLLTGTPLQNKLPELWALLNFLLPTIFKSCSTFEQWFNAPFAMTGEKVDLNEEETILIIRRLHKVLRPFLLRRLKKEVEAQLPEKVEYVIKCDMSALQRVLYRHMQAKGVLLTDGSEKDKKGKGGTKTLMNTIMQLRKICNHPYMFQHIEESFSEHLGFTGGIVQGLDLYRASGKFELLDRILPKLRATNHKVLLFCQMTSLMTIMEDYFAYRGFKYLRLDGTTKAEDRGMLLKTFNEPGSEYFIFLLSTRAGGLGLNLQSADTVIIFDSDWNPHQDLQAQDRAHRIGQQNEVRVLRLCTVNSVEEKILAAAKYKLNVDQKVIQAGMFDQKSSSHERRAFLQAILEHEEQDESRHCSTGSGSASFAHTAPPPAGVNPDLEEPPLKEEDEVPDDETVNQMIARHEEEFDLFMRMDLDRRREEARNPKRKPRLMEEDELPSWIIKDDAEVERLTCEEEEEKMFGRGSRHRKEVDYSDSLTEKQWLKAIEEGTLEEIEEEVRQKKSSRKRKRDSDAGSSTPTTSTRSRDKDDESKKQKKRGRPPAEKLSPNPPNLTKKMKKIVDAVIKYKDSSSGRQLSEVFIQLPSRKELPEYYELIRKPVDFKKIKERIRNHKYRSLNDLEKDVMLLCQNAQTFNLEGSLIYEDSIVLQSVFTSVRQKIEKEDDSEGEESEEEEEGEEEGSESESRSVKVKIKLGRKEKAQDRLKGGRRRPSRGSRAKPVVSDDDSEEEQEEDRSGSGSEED
Outline: as §1

BRM, sequence (P51531 whole entry): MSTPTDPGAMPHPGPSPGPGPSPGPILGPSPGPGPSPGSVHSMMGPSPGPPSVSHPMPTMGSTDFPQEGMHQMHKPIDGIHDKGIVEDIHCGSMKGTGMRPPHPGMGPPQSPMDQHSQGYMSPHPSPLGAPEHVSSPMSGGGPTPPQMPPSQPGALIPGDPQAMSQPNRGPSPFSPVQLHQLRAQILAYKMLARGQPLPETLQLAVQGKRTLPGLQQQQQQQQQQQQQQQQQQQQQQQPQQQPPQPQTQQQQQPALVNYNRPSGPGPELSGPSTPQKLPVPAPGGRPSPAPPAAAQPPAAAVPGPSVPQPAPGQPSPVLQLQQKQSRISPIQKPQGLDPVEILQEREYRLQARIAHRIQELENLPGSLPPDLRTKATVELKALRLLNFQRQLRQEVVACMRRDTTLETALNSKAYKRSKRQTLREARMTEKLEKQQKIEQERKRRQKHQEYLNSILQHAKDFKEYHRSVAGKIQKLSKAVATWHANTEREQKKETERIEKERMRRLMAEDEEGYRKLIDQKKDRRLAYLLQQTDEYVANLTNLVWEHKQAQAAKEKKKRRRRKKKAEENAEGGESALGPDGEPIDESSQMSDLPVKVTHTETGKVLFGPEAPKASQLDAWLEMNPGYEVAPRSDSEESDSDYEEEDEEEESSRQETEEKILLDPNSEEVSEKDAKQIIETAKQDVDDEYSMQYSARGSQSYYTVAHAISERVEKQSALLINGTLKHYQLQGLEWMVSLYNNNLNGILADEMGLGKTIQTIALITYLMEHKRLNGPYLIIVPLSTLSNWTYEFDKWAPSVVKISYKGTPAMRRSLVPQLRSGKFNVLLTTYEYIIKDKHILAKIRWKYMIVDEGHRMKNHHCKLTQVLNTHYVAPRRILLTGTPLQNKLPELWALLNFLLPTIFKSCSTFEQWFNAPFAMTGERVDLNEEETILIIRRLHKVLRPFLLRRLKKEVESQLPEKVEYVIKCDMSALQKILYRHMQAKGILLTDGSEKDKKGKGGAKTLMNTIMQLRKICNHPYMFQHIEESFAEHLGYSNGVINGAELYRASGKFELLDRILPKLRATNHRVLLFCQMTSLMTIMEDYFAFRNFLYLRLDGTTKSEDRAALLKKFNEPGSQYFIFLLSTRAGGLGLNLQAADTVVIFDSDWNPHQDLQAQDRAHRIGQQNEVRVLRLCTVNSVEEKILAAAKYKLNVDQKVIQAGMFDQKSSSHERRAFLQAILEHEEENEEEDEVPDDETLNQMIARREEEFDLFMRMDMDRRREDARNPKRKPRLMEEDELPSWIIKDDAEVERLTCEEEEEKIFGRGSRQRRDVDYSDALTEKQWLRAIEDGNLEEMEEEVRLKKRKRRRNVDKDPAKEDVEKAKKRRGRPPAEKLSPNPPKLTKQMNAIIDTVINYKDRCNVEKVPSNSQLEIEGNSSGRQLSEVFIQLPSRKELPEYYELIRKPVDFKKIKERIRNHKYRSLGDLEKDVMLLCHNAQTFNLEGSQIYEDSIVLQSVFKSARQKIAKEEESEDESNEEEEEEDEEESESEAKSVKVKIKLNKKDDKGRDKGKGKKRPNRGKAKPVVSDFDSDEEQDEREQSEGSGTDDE

Row | Structure (SMILES) | BRM Max % Inhibition [1] | IC50 ([1]; read-out: BRM IC50 (μM)*) | IC50 ([2]; read-out: BRG1 IC50 (μM)*) | Emax [2] | IC50 ([1]; BRM IC50 (μM)*) | IC50 ([2]; BRG1 IC50 (μM)*)
1 | CC(C)S(=O)(=O)c1cccc(C(=O)NCC(=O)Nc2nc(-c3cccc(-c4ccnc(N)c4)c3)cs2)c1 [Compound 22, N-(2-((4-(3-(2-aminopyridin-4-yl)phenyl)thiazol-2-yl)amino)-2-oxoethyl)-3-(isopropylsulfonyl)benzamide] | >95% |  |  |  | < 0.1 µM | 0.1 to 1 µM
2 | CC(C)S(=O)(=O)c1cccc(C(=O)NCC(=O)Nc2nc(-c3cccc(-c4cccc(C#N)c4)c3)cs2)c1 [Compound 24, N-(2-((4-(3′-cyano-[1,1′-biphenyl]-3-yl)thiazol-2-yl)amino)-2-oxoethyl)-3-(isopropylsulfonyl)benzamide] | >90% | 0.1 to 1 µM | 1 to 5 µM |  |  | 
3 | CC(C)S(=O)(=O)c1cccc(C(=O)NCC(=O)Nc2nc(-c3cccc(-c4ccnc(CO)c4)c3)cs2)c1 [Compound 26, N-(2-((4-(3-(2-(hydroxymethyl)pyridin-4-yl)phenyl)thiazol-2-yl)amino)-2-oxoethyl)-3-(isopropylsulfonyl)benzamide] | >90% | < 0.1 µM | 0.1 to 1 µM |  |  | 
4 | CC(C)S(=O)(=O)c1cccc(C(=O)NCC(=O)Nc2nc(-c3cccc(-c4cc(CO)cc(C(F)(F)F)c4)c3)cs2)c1 [Compound 27, N-(2-((4-(3′-(hydroxymethyl)-5′-(trifluoromethyl)-[1,1′-biphenyl]-3-yl)thiazol-2-yl)amino)-2-oxoethyl)-3-(isopropylsulfonyl)benzamide] | >95% | < 0.1 µM | 0.1 to 1 µM |  |  | 
5 | CC(C)S(=O)(=O)c1cccc(C(=O)NCC(=O)Nc2nc(-c3cccc(-c4cccc(Cl)c4)c3)cs2)c1 [Compound 28, N-(2-((4-(3′-chloro-[1,1′-biphenyl]-3-yl)thiazol-2-yl)amino)-2-oxoethyl)-3-(isopropylsulfonyl)benzamide] | >80% |  |  |  | 0.1 to 1 µM | 1 to 5 µM
6 | COc1cc(-c2cccc(-c3csc(NC(=O)CNC(=O)c4cccc(S(=O)(=O)C(C)C)c4)n3)c2)ccn1 [Compound 29, 3-(isopropylsulfonyl)-N-(2-((4-(3-(2-methoxypyridin-4-yl)phenyl)thiazol-2-yl)amino)-2-oxoethyl)benzamide] | >90% | 0.1 to 1 µM | 0.1 to 1 µM |  |  | 
7 | CC(C)S(=O)(=O)c1cccc(C(=O)NCC(=O)Nc2nc(-c3cccc(-c4cc(Cl)cc(Cl)c4)c3)cs2)c1 [Compound 30, N-(2-((4-(3′,5′-dichloro-[1,1′-biphenyl]-3-yl)thiazol-2-yl)amino)-2-oxoethyl)-3-(isopropylsulfonyl)benzamide] | >90% | 0.1 to 1 µM | 1 to 5 µM |  |  | 
8 | CC(C)S(=O)(=O)c1cccc(C(=O)NCC(=O)Nc2nc(-c3cccc(-c4ccnc(CN(C)C)c4)c3)cs2)c1 [Compound 45, N-(2-((4-(3-(2-((dimethylamino)methyl)pyridin-4-yl)phenyl)thiazol-2-yl)amino)-2-oxoethyl)-3-(isopropylsulfonyl)benzamide] | >95% | < 0.1 µM | 1 to 5 µM |  |  | 
9 | CC(C)(CN)c1cccc(C(=O)NCC(=O)Nc2nc(-c3cccc(-c4cc(C#N)cc(C#N)c4)c3)cs2)c1 [Compound 50, 3-(1-amino-2-methylpropan-2-yl)-N-(2-((4-(3′,5′-dicyano-[1,1′-biphenyl]-3-yl)thiazol-2-yl)amino)-2-oxoethyl)benzamide] | >90% | 0.1 to 1 µM | 1 to 5 µM | > 70% |  | 
10 | CC(C)(CN)c1cccc(C(=O)NCC(=O)Nc2nc(-c3cccc(-c4cc(C#N)cc(CO)c4)c3)cs2)c1 [Compound 52, 3-(1-amino-2-methylpropan-2-yl)-N-(2-((4-(3′-cyano-5′-(hydroxymethyl)-[1,1′-biphenyl]-3-yl)thiazol-2-yl)amino)-2-oxoethyl)benzamide] | >80% | 0.1 to 1 µM | 1 to 5 µM | > 70% |  | 
11 | CC(C)(CN)c1cccc(C(=O)NCC(=O)Nc2nc(-c3cccc(-c4cc(CO)cc(C(F)(F)F)c4)c3)cs2)c1 [Compound 53, 3-(1-amino-2-methylpropan-2-yl)-N-(2-((4-(3′-(hydroxymethyl)-5′-(trifluoromethyl)-[1,1′-biphenyl]-3-yl)thiazol-2-yl)amino)-2-oxoethyl)benzamide] | >90% | 0.1 to 1 µM | 1 to 5 µM | > 70% |  | 

Now from value to compound, other results behind:

Row | BRM Max % Inhibition [1] | IC50 ([1]; read-out: BRM IC50 (μM)*) | IC50 ([2]; read-out: BRG1 IC50 (μM)*) | Emax [2] | Structure (SMILES) | IC50 ([1]; BRM IC50 (μM)*) | IC50 ([2]; BRG1 IC50 (μM)*)
12 | >80% | 0.1 to 1 µM | 1 to 5 µM | > 70% | CC(C)S(=O)(=O)c1cccc(C(=O)NCC(=O)Nc2nc(-c3cccc(-c4cc(C#N)cc(C#N)c4)c3)cs2)c1 [Compound 21, N-(2-((4-(3′,5′-dicyano-[1,1′-biphenyl]-3-yl)thiazol-2-yl)amino)-2-oxoethyl)-3-(isopropylsulfonyl)benzamide] |  | 
13 | >90% | 0.1 to 1 µM | 0.1 to 1 µM | > 80% | CC(C)S(=O)(=O)c1cccc(C(=O)NCC(=O)Nc2nc(-c3cccc(-c4cc(C#N)cc(CO)c4)c3)cs2)c1 [Compound 23, N-(2-((4-(3′-cyano-5′-(hydroxymethyl)-[1,1′-biphenyl]-3-yl)thiazol-2-yl)amino)-2-oxoethyl)-3-(isopropylsulfonyl)benzamide] |  | 
14 | >90% | < 0.1 µM | 0.1 to 1 µM | > 80% | CC(=O)N(C)c1cc(-c2cccc(-c3csc(NC(=O)CNC(=O)c4cccc(S(=O)(=O)C(C)C)c4)n3)c2)ccn1 [Compound 25, 3-(isopropylsulfonyl)-N-(2-((4-(3-(2-(N-methylacetamido)pyridin-4-yl)phenyl)thiazol-2-yl)amino)-2-oxoethyl)benzamide] |  | 
15 | >90% | 0.1 to 1 µM | 1 to 5 µM | > 70% | CC(C)S(=O)(=O)c1cccc(C(=O)NCC(=O)Nc2nc(-c3cccc(-c4cccc(CN)c4)c3)cs2)c1 [Compound 31, N-(2-((4-(3′-(aminomethyl)-[1,1′-biphenyl]-3-yl)thiazol-2-yl)amino)-2-oxoethyl)-3-(isopropylsulfonyl)benzamide] |  | 
16 | >95% | 0.1 to 1 µM | 0.1 to 1 µM | > 80% | COC[C@H](NC(=O)c1cccc(S(=O)(=O)C(C)C)c1)C(=O)Nc1nc(-c2cccc(-c3ccnc(C)c3)c2)cs1 [Compound 32, (S)-3-(isopropylsulfonyl)-N-(3-methoxy-1-((4-(3-(2-methylpyridin-4-yl)phenyl)thiazol-2-yl)amino)-1-oxopropan-2-yl)benzamide] |  | 
17 | >70% | > 5 µM | > 5 µM | > 80% | CC(C)S(=O)(=O)c1cccc(C(=O)NCC(=O)Nc2nc(-c3cc(C#N)cc(-c4ccc(CN)cc4)c3)cs2)c1 [Compound 33, N-[2-[[4-[3-[4-(aminomethyl)phenyl]-5-cyano-phenyl]thiazol-2-yl]amino]-2-oxo-ethyl]-3-isopropylsulfonyl-benzamide] |  | 
18 | >95% | 0.1 to 1 µM | 1 to 5 µM | > 90% | CC(C)S(=O)(=O)c1cccc(C(=O)NCC(=O)Nc2nc(-c3cccc(-c4cccnc4)c3)cs2)c1 [Compound 39, 3-isopropylsulfonyl-N-[2-oxo-2-[[4-[3-(3-pyridyl)phenyl]thiazol-2-yl]amino]ethyl]benzamide] |  | 
19 | >95% | 0.1 to 1 µM | 1 to 5 µM | > 60% | Cc1ccc(C(=O)NCC(=O)Nc2nc(-c3cccc(-c4ccn(C)n4)c3)cs2)cc1S(=O)(=O)C(C)C [Compound 46, 3-(isopropylsulfonyl)-4-methyl-N-(2-((4-(3-(1-methyl-1H-pyrazol-3-yl)phenyl)thiazol-2-yl)amino)-2-oxoethyl)benzamide] |  | 
20 | >95% | 0.1 to 1 µM | 0.1 to 1 µM | > 80% | CSCC[C@H](NC(=O)c1cccc(C(C)(C)CN)c1)C(=O)Nc1nc(-c2cccc(-c3ccncc3)c2)cs1 [Compound 48, (S)-3-(1-amino-2-methylpropan-2-yl)-N-(4-(methylthio)-1-oxo-1-((4-(3-(pyridin-4-yl)phenyl)thiazol-2-yl)amino)butan-2-yl)benzamide] |  | 
21 | >80% | 0.1 to 1 µM | > 5 µM | > 60% | COc1cc(-c2cccc(-c3csc(NC(=O)CNC(=O)c4cccc(C(C)(C)CN)c4)n3)c2)ccn1 [Compound 49, 3-(1-amino-2-methylpropan-2-yl)-N-(2-((4-(3-(2-methoxypyridin-4-yl)phenyl)thiazol-2-yl)amino)-2-oxoethyl)benzamide] |  | 
22 | >80% | 0.1 to 1 µM | > 5 µM | > 50% | CC(C)(CN)c1cccc(C(=O)NCC(=O)Nc2nc(-c3cccc(-c4cc(Cl)cc(Cl)c4)c3)cs2)c1 [Compound 51, 3-(1-amino-2-methylpropan-2-yl)-N-(2-((4-(3′,5′-dichloro-[1,1′-biphenyl]-3-yl)thiazol-2-yl)amino)-2-oxoethyl)benzamide] |  | 
23 | >80% | 1 to 5 µM | 1 to 5 µM | > 50% | CC(C)(CN)c1cccc(C(=O)NCC(=O)Nc2nc(-c3cccc(-c4cccc(Cl)c4)c3)cs2)c1 [Compound 54, 3-(1-amino-2-methylpropan-2-yl)-N-(2-((4-(3′-chloro-[1,1′-biphenyl]-3-yl)thiazol-2-yl)amino)-2-oxoethyl)benzamide] |  | 
24 | >90% | 0.1 to 1 µM | > 5 µM | > 60% | CC(C)(CN)c1cccc(C(=O)NCC(=O)Nc2nc(-c3cccc(-c4cccc(C#N)c4)c3)cs2)c1 [Compound 55, 3-(1-amino-2-methylpropan-2-yl)-N-(2-((4-(3′-cyano-[1,1′-biphenyl]-3-yl)thiazol-2-yl)amino)-2-oxoethyl)benzamide] |  | 
